Consider one compound from US12544403B2, “Methods to treat mitochondrial-associated dysfunctions or diseases” (The General Hospital Corporation, priority 2019, dated 2026).

Series [1] in a line: Hematocrit and COHb measurements (blood gas analyzer) in mice chronically breathing CO. It counts as in vivo. As to conditions: for hematocrit: after three weeks of 600 ppm CO treatment. As to the method:
Eighty microliters of blood were collected by tail snip into a heparinized capillary. Hemoglobin concentration, hematocrit and the saturation of hemoglobin with oxygen (O2Hb) and carbon monoxide (COHb) were measured using a blood gas analyzer (ABL800 FLEX, Radiometer, Copenhagen, Denmark).
(§1) Mice were housed in 80-L transparent acrylic boxes. Control chambers were provided with a constant flow of medical air at 21% FiO2. A concentration of 11% or 17% oxygen was obtained by mixing medical air with nitrogen obtained from a nitrogen generator (MAG-20; Higher Peak). A concentration of 600 ppm CO was obtained by mixing medical air with CO from a cylinder containing 2% CO (20,000 ppm) (Airgas). The total gas flow through the chamber was adjusted to maintain chamber CO2 concentrations below 0.4% (CO200; Extech). Soda lime was added to the chambers as a CO2 scavenger. The oxygen concentration was measured at the outlet port of the chamber with an O2 sensor (MiniOx 1; Ohio Medical), which was calibrated using an 8.55% O2 reference tank (Airgas). In a similar way the CO concentration was measured a CO sensor (MSA Altair PRO; MSA Safety Inc, Pittsburgh, Pa), which was calibrated using a 1000 ppm CO reference cylinder (Airgas). Oxygen levels inside the chambers were tolerated within a 0.4% offset from the target concentration by adjusting nitrogen flow as needed. Temperature was maintained at 24-26° C., and humidity was maintained at 30-70%. A standard light-dark cycle of ˜12 h light exposure was used. Mice were housed in cages with standard bedding and given unlimited access to food and water.

Series [2] can be described thus: Brain tissue PO2 measurement (vestibular nuclei, optical probe). It counts as in vivo, mice. As to conditions: optical probe (FIG. 3G). As to the method: Ndufs4^−/− and WT mice were anesthetized with Isoflurane (induction at 2-4%, maintenance at 1-1.5%), intubated, and mechanically ventilated with a tidal volume of 8 ml/kg, a respiratory rate of 110 breaths per minute and an inspired fraction of oxygen (FiO2) of 21%. Mice were placed in a prone position and the head was stabilized using a stereotaxic frame (ASI instruments, Inc., MI). After incision and dissection of the skin, an opening in the skull was performed using a micro-drill (MD-1200, Braintree Scientific, Inc., MA) and a PO2 probe was inserted at the desired location. The coordinates for the thalamic measurements were mediolateral [ML]=−1.00 mm, anterioposterior [AP]=−2.00 mm, and dorsoventral [DV]=−4.00 mm from the bregma, while the coordinates for the vestibular nuclei were ML=−1.25 mm, AP=−6.00 mm, and DV=−3.90 mm from the bregma. […] In some experiments the FiO2 was modulated over the course of the test and the brain PO2 was simultaneously measured.
(§2) Mice were housed in 80-L transparent acrylic boxes. […] The oxygen concentration was measured at the outlet port of the chamber with an O2 sensor (MiniOx 1; Ohio Medical), which was calibrated using an 8.55% O2 reference tank (Airgas). In a similar way the CO concentration was measured a CO sensor (MSA Altair PRO; MSA Safety Inc, Pittsburgh, Pa), which was calibrated using a 1000 ppm CO reference cylinder (Airgas). […]

Series [3] relates to Ndufs4 KO mice. Put plainly: Survival and body weight of Ndufs4 KO mice (Leigh syndrome model) breathing CO. The format is in vivo.
Description: All animal work in manuscript was approved by the Subcommittee on Research Animal Care and the Institutional Animal Care and Use Committee of Massachusetts General Hospital. Ndufs4^−/− were obtained from Palmiter laboratory (University of Washington). Mice lacking Phd1 (Aragones et al., 2008), Nestin-Phd2 (Mazzone et al., 2009) and Phd3 (Bishop et al., 2008) were provided by the Carmeliet laboratory (KU Leuven). Vh1L^ch/ch mice were provided by Josef Prchal (University of Utah). Genetic crosses were performed by crossing Ndus4^+/− mice with remaining strains. Throughout this study, Ndufs4^+/+ and Ndufs4^+/− mice were indiscriminately used as healthy controls, since there is no apparent phenotypical difference between these genotypes. When possible, controls from the same genetic cross were used, in order to make comparisons between reasonably similar genetic backgrounds. Pups were genotyped and weaned from mothers at 25-30 d of age. Cages and water were changed weekly. […]
as §2

Series [4] deals with Ndufs4 KO mice. Briefly: T2-weighted brain MRI of Ndufs4 KO mice breathing CO. It counts as in vivo.
Description: as §1
MRI scans of the brain were performed as previously described (Ferrari et al., 2017), using respiratory gated T2-weighted RARE (rapid acquisition of refocused echoes) MRI images acquired on a 4.7-T small animal scanner (Pharmascan; Bruker) with the following parameters: RARE factor: 10, echo time: 60 ms, repetition time: 6000 ms, Averages: 8, 192×192×24 image matrix with a voxel size of 0.130×0.130×0.7 mm. Mice were under anesthesia (isoflurane between 0.5-1.5% in room air) during the imaging procedure. Images were generated using a DICOM reader (Osirix, University of Geneva).

Series [5] has as its target hemoglobin (Homo sapiens, UniProt P68871+P69905). As to conditions: cited from earlier work.
[6] abbreviates: Ndufs4 KO mice exposed to CO for 2-3 months (FIG. 3H).

hemoglobin, sequence (P69905 2-142 limits assumed): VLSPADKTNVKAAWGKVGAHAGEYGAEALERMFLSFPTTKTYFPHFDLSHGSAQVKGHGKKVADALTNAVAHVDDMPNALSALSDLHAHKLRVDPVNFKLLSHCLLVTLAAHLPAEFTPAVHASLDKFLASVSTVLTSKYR
hemoglobin, sequence (P68871 2-147 limits assumed): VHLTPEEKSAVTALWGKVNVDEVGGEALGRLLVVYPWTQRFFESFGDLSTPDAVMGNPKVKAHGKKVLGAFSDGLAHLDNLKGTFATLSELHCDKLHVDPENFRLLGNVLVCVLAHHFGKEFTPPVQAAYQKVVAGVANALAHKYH

For the compound `[C-]#[O+]` [CO, carbon monoxide], the values for the hematocrit in series [1] (Ndufs4 KO mice) and in series [1] (WT mice) were 76% and 79%, respectively. The “arterial O2Hb” value in series [1] (chronic, continuous 600 ppm CO in air (FIG. 3C)) is recorded as approximately 60%. In series [1] (chronic, continuous 600 ppm CO in air, WT mice (FIG. 3C)), the “arterial COHb” value is recorded as approximately 40%. In addition, the results for the “brain PO2” value in series [2] (Ndufs4 KO mice chronically breathing CO at 600 ppm in air) and in series [2] (WT mice chronically breathing CO at 600 ppm in air) were 36 mmHg and 19 mmHg, respectively. For the same compound, the median survival in series [3] (600 ppm CO in room air (FIG. 3E)) was approximately 150 days. The body weight result in series [3] (600 ppm CO started at late-stage disease (FIG. 3D)) is recorded as “body weight gradually regained”. Also, in series [4] (setting [6]), the “Leigh's disease lesions on MRI” value was “not present”. Also, the “new brain lesions on MRI due to chronic CO treatment” value in series [4] (setting [6]) is given as “hyperintense lesions apparent in the caudoputamen region of the brain”. Further, the “MRI lesions in the vestibular nucleus” value in series [4] (late-stage Ndufs4 KO mice, 600 ppm CO for 2-3 weeks (FIG. 3F)) is “completely reversed lesions in the vestibular nucleus”. In series [5], the “affinity for hemoglobin relative to oxygen” value is on record as 200 fold.
